What was measured:
[1] = Half life of the compound in fluka 82564 buffer at pH 2 by HPLC analysis; assay type: physicochemical
[2] = Half life of the compound in fluka 82567 buffer at pH 7 by HPLC analysis; assay type: physicochemical
[3] = Stability of the compound at -20 degC assessed as compound degradation after 4 months by HPLC analysis; assay type: physicochemical; settings: 2922 h
[4] = tested on: Vesicular stomatitis virus; assay: Antiviral activity against Vesicular somatitis virus infected in HEL cells assessed as inhibition of virus-induced cytopathicity; assay type: functional, organism-based
[5] = tested on: Human immunodeficiency virus 2; assay: Antiviral activity against HIV-2 ROD infected in human CEM cells assessed as HIV-induced host giant cell formation after 4 days by microscopic analysis; assay type: functional, organism-based; settings: Human immunodeficiency virus 2, ISOLATE ROD, CCRF-CEM, 96 h
Human alphaherpesvirus 2 = assay: Antiviral activity against HSV-2 G infected in HEL cells assessed as inhibition of virus-induced cytopathicity; assay type: functional, organism-based; settings: Human alphaherpesvirus 2, strain G
Cytomegalovirus = assay: Antiviral activity against Cytomegalovirus Davis infected in HEL cells assessed as inhibition of virus-induced cytopathicity; assay type: functional, organism-based; settings: Human betaherpesvirus 5, Davis
[6] = Cytotoxicity against human HEL cells; assay type: cell-based
[7] = Stability of the compound in fluka 82571 buffer at pH 5 assessed as compound degradation after 2 days by HPLC analysis; assay type: physicochemical; settings: pH 5, 48 h
Feline coronavirus = assay: Antiviral activity against Feline coronavirus in cat CrFK cells assessed as plaque formation; assay type: functional, organism-based; settings: Alphacoronavirus 1, CRFK
L1210 = assay: Cytotoxicity against mouse L1210 cells; assay type: cell-based
[8] = Stability of the compound in fluka 82567 buffer at pH 7 assessed as compound degradation after 2 days by HPLC analysis; assay type: physicochemical; settings: pH 7, 48 h
Felid alphaherpesvirus 1 = assay: Antiviral activity against Feline herpesvirus in cat CrFK cells assessed as plaque formation; assay type: functional, organism-based; settings: Felid alphaherpesvirus 1, CRFK
Human alphaherpesvirus 3 [9] = assay: Antiviral activity against Varicellla-zoster virus 07-1 infected in HEL cells assessed as inhibition of virus-induced cytopathicity; assay type: functional, organism-based; settings: Human alphaherpesvirus 3, 07-1, HEL
Human alphaherpesvirus 1 [10] = assay: Antiviral activity against HSV-1 KOS infected in HEL cells assessed as inhibition of virus-induced cytopathicity; assay type: functional, organism-based; settings: Human alphaherpesvirus 1, KOS
Human alphaherpesvirus 1 [11] = assay: Antiviral activity against thymidine kinase-deficient ACV-resistant HSV-1 KOS infected in HEL cells assessed as inhibition of virus-induced cytopathicity; assay type: functional, organism-based; settings: Human alphaherpesvirus 1, KOS
[12] = tested on: Human immunodeficiency virus 1; assay: Antiviral activity against HIV-1 3B infected in human CEM cells assessed as HIV-induced host giant cell formation after 4 days by microscopic analysis; assay type: functional, organism-based; settings: Human immunodeficiency virus 1, 3B, CCRF-CEM, 96 h
Human alphaherpesvirus 3 [13] = assay: Antiviral activity against Varicellla-zoster virus Oka infected in HEL cells assessed as inhibition of virus-induced cytopathicity; assay type: functional, cell-based; settings: Human alphaherpesvirus 3, strain Oka vaccine
Human betaherpesvirus 5 = assay: Antiviral activity against Cytomegalovirus AD-169 infected in HEL cells assessed as inhibition of virus-induced cytopathicity; assay type: functional, organism-based; settings: Human betaherpesvirus 5, AD169, HEL
Vaccinia virus = assay: Antiviral activity against Vaccinia virus Lederle infected in HEL cells assessed as inhibition of virus-induced cytopathicity; assay type: functional, organism-based; settings: Orthopoxvirus vaccinia
CCRF-CEM = assay: Cytotoxicity against human CEM cells; assay type: cell-based
[14] = Cytotoxicity against cat CRFK cells; assay type: cell-based, Felis catus

In the case of `C[C@H](NP(=O)(Oc1ccccc1)O[C@H]1O[C@H](CO)[C@@H](O)[C@@H]1F)C(=O)OC1CCCCC1` (some centres not stated), the t1/2 [1] is reported as 1.07 h and the t1/2 [2] is reported as 2 h.

With `C[C@H](NP(=O)(Oc1ccccc1)O[C@H]1O[C@H](CO)[C@@H](O)C1(F)F)C(=O)OC1CCCCC1` (mixture of isomers) the Stability [3] was “Stable”, the EC50 [4] was over 20 µM and the EC50 [5] was over 250 µM. It also gave an EC50 (Human alphaherpesvirus 2) of over 20 µM, an EC50 (Cytomegalovirus) of over 20 µM and an MCC [6] of at least 100 µM. For the same compound, the Stability [7] was “Stable”, the EC50 (Feline coronavirus) was over 20 µM and the IC50 (L1210) was over 30 µM. The Stability [8] was “Stable”, the EC50 (Felid alphaherpesvirus 1) was over 20 µM and the EC50 (Human alphaherpesvirus 3 [9]) was over 20 µM. It also gave an EC50 (Human alphaherpesvirus 1 [10]) of over 20 µM, an EC50 (Human alphaherpesvirus 1 [11]) of over 20 µM and an EC50 [12] of over 250 µM. It also gave an EC50 (Human alphaherpesvirus 3 [13]) of over 20 µM, an EC50 (Human betaherpesvirus 5) of over 20 µM and an EC50 (Vaccinia virus) of over 20 µM. For the same compound, the IC50 (CCRF-CEM) was over 30 µM and the CC50 [14] was over 100 µM.

Reference: ChEMBL document CHEMBL2385007, “Synthesis and biological evaluation of prodrugs of 2-fluoro-2-deoxyribose-1-phosphate and 2,2-difluoro-2-deoxyribose-1-phosphate” (Bioorg Med Chem Lett, 2013)
